Drawing on article PMC5965259 (Journal of medicinal chemistry, 2018), this text covers EC50 for 37 compounds.

A value given as a limit tells only on which side of the number the result lay.

The test has as its system bloodstream form T. brucei Lister 427. Description: ATP–bioluminescence-based bloodstream form T. brucei cell viability assay. The conditions noted are these: Trypanosoma brucei, 48 h, read-out: Tb427 EC50.
Usually EC50 stands for the midpoint of the concentration-response curve. With `Cc1cc(Nc2cc(Cl)cc(-c3cccc(Cl)c3)c2)nc(N)n1` [Compound 102, N^4-(3′,5-Dichloro-[1,1′-biphenyl]-3-yl)-6-methylpyrimidine-2,4-diamine], the EC50 was 1.9 µM.

On to `Cc1cc(C)cc(Nc2cc(C)nc(N)n2)c1` [Compound 52, N^4-(3,5-Dimethylphenyl)-6-methylpyrimidine-2,4-diamine], for which the concentration giving a half-maximal response (EC50) was 19 µM.

In the case of `Cc1cc(Nc2cc(Cl)cc(-c3ccccc3)c2)nc(N)n1` [Compound 35, N^4-(5-Chloro-[1,1′-biphenyl]-3-yl)-6-methylpyrimidine-2,4-diamine], the EC50 came to 4.5 µM.

As to `Cc1cc(Nc2ccccc2)nc(N)n1` [Compound 59], the EC50 is over 25 µM.

For `Cc1cc(Nc2cc(Cl)cc(-c3cnn(C)c3)c2)nc(N)n1` [Compound 116, N^4-(3-Chloro-5-(1-methyl-1H-pyrazol-4-yl)phenyl)-6-methylpyrimidine-2,4-diamine], the EC50 amounted to 6.7 µM.

In the case of `CC(=O)c1ccc(-c2cc(Cl)cc(Nc3cc(C)nc(N)n3)c2)cc1` [Compound 97, 1-(3′-((2-Amino-6-methylpyrimidin-4-yl)amino)-5′-chloro-[1,1′-biphenyl]-4-yl)ethan-1-one], the EC50 worked out at 6.7 µM.

In the case of `CCc1cc(Br)cc(Nc2cc(C)nc(N)n2)c1` [Compound 38, N^4-(3-Bromo-5-ethylphenyl)-6-methylpyrimidine-2,4-diamine], the EC50 was 5.5 µM.

In the case of `Cc1cc(Nc2cc(Cl)cc(-c3ccc(C(F)(F)F)cc3)c2)nc(N)n1` [Compound 95, N^4-(5-Chloro-4′-(trifluoromethyl)-[1,1′-biphenyl]-3-yl)-6-methylpyrimidine-2,4-diamine], the EC50 came out at 2 µM.

As for `Cc1cc(Nc2cc(Cl)c(O)c(Cl)c2)nc(N)n1` [Compound 67, 4-((2-Amino-6-methylpyrimidin-4-yl)amino)-2,6-dichlorophenol], the concentration for a half-maximal effect (EC50) was 13 µM.

As to `CCc1ccc(Nc2cc(C)nc(N)n2)cc1` [Compound 86], the concentration giving a half-maximal response (EC50) came to 19 µM.

Consider `Nc1nc(Nc2cc(Cl)cc(Cl)c2)cc(N2CCOCC2)n1` [Compound 12], for which the EC50 is 13 µM.

Regarding `Cc1cc(Nc2cc(Cl)cc(-c3cc(C(F)(F)F)cc(C(F)(F)F)c3)c2)nc(N)n1` [Compound 106, N^4-(5-Chloro-3′,5′-bis(trifluoromethyl)-[1,1′-biphenyl]-3-yl)-6-methylpyrimidine-2,4-diamine], the concentration giving a half-maximal response (EC50) worked out at 0.53 µM.

For `Cc1cc(Nc2cc(Cl)cc(-c3cc4ccccc4s3)c2)nc(N)n1` [Compound 114, N^4-(3-(Benzo[b]thiophen-2-yl)-5-chlorophenyl)-6-methylpyrimidine-2,4-diamine], the EC50 was 1.6 µM.

For the compound `Cc1cc(Nc2cc(Cl)cc(-c3ccoc3)c2)nc(N)n1` [Compound 111, N^4-(3-Chloro-5-(furan-3-yl)phenyl)-6-methylpyrimidine-2,4-diamine], the EC50 came to 7.1 µM.

As to `Cc1cc(Nc2cc(Cl)cc(-c3ccc4nonc4c3)c2)nc(N)n1` [Compound 110, N^4-(3-(Benzo[c][1,2,5]oxadiazol-5-yl)-5-chlorophenyl)-6-methylpyrimidine-2,4-diamine], the EC50 came out at 0.57 µM.

As to `CCc1cc(Nc2cc(Cl)cc(Cl)c2)nc(N)n1` [Compound 9], the EC50 worked out at 4.7 µM.

As to `Cc1cc(Nc2ccccc2Br)nc(N)n1` [Compound 79], the concentration giving a half-maximal response (EC50) is over 25 µM.

Consider `Cc1cc(Nc2cc(Cl)cc(-c3ccccc3Cl)c2)nc(N)n1` [Compound 101, N^4-(2′,5-Dichloro-[1,1′-biphenyl]-3-yl)-6-methylpyrimidine-2,4-diamine], for which the EC50 was determined as 8.5 µM.

On to `Cc1cc(Nc2cc(Cl)cc(-c3ccc(O)cc3)c2)nc(N)n1` [Compound 98, 3′-((2-Amino-6-methylpyrimidin-4-yl)amino)-5′-chloro-[1,1′-biphenyl]-4-ol], for which the concentration for a half-maximal effect (EC50) came to 9.7 µM.

Turning to `Cc1cc(Nc2cc(Cl)cc(-c3ccc(Cl)c(C(F)(F)F)c3)c2)nc(N)n1` [Compound 105, N^4-(4′,5-Dichloro-3′-(trifluoromethyl)-[1,1′-biphenyl]-3-yl)-6-methylpyrimidine-2,4-diamine], the half-maximal effective concentration (EC50) was determined as 1.5 µM.

In the case of `Cc1cc(Nc2cc(Cl)c(Cl)c(Cl)c2)nc(N)n1` [Compound 64, 6-Methyl-N^4-(3,4,5-trichlorophenyl)pyrimidine-2,4-diamine], the half-maximal effective concentration (EC50) was 4.5 µM.

As to `Cc1cc(Sc2cc(Cl)cc(Cl)c2)nc(N)n1` [Compound 29, 4-((3,5-Dichlorophenyl)thio)-6-methylpyrimidin-2-amine], the EC50 is over 25 µM.

Regarding `Cc1cc(Nc2ccc(C(C)C)cc2)nc(N)n1` [Compound 87], the EC50 came to 11 µM.

With `Cc1cc(Nc2cc(Cl)c(N3CCOCC3)c(Cl)c2)nc(N)n1` [Compound 70, N^4-(3,5-Dichloro-4-morpholinophenyl)-6-methylpyrimidine-2,4-diamine], the EC50 was found to be 18 µM.

As for `Cc1cc(Nc2cc(Cl)c(N(C)C)c(Cl)c2)nc(N)n1` [Compound 69, N^4-(3,5-Dichloro-4-(dimethylamino)phenyl)-6-methylpyrimidine-2,4-diamine], the EC50 came out at 5.8 µM.

Take `Nc1ccnc(Nc2cc(Cl)cc(Cl)c2)c1` [Compound 18, N^2-(3,5-Dichlorophenyl)pyridine-2,4-diamine]: the EC50 is 38 µM.

Regarding `COc1cc(Nc2cc(C)nc(N)n2)cc(OC)c1` [Compound 47, N^4-(3,5-Dimethoxyphenyl)-6-methylpyrimidine-2,4-diamine], the EC50 worked out at 41 µM.

As for `Cc1cc(Nc2cc(-c3ccccc3)cc(-c3ccccc3)c2)nc(N)n1` [Compound 50, N^4-([1,1′:3′,1″-Terphenyl]-5′-yl)-6-methylpyrimidine-2,4-diamine], the EC50 worked out at 1.5 µM.

Turning to `Cc1cc(Nc2ccc(Cl)cc2C)nc(N)n1` [Compound 82], the EC50 is over 25 µM.

Regarding `Cc1cc(Nc2cccc(Br)c2)nc(N)n1` [Compound 56], the EC50 amounted to 22 µM.

As to `Cc1cc(Nc2cc(Cl)c(F)c(Cl)c2F)nc(N)n1` [Compound 73, N^4-(3,5-Dichloro-2,4-difluorophenyl)-6-methylpyrimidine-2,4-diamine], the EC50 amounted to 10 µM.

Turning to `Cc1cc(Nc2cccc(F)c2)nc(N)n1` [Compound 57], the EC50 was over 25 µM.

Turning to `Cc1cc(Nc2cc(Cl)cc(-c3cncs3)c2)nc(N)n1` [Compound 115, N^4-(3-Chloro-5-(thiazol-5-yl)phenyl)-6-methylpyrimidine-2,4-diamine], the EC50 was 3.6 µM.

Consider `Cc1cc(Nc2cc(Cl)cc(Cl)c2)cc(N)n1` [Compound 20, N^4-(3,5-Dichlorophenyl)-6-methylpyridine-2,4-diamine], for which the EC50 was 2.2 µM.

Turning to `Cc1cc(Nc2cc(Cl)c(N3CCCCC3)c(Cl)c2)nc(N)n1` [Compound 71, N^4-(3,5-Dichloro-4-(piperidin-1-yl)phenyl)-6-methylpyrimidine-2,4-diamine], the EC50 was 2.1 µM.

`Cc1cc(Nc2cc(Cl)cc(-c3cncnc3)c2)nc(N)n1` [Compound 117, N^4-(3-Chloro-5-(pyrimidin-5-yl)phenyl)-6-methylpyrimidine-2,4-diamine]: the 50% effective concentration (EC50) is 58 µM.

`Cc1ccc(-c2cc(Cl)cc(Nc3cc(C)nc(N)n3)c2)cc1` [Compound 94, N^4-(5-Chloro-4′-methyl-[1,1′-biphenyl]-3-yl)-6-methylpyrimidine-2,4-diamine]: the EC50 amounted to 4.3 µM.
